# In patent US20060258726A1, “1,5-Disubstituted imidazolidin-2-one derivatives for use as ep4 receptor agonists in the treatment of eye and bone diseases” (priority 2002, published 2006):
# Legend:
# intracellular cAMP = experiment: Effect of PGE2 on intracellular cAMP in osteoblastic cell lines; type: cell-based, rat
# EP4 mRNA [1] = experiment: EP4 mRNA levels in bone-derived cell lines (Northern blot); type: cell-based, rat
# Experimental: (§1) RP-1 periosteal cells are spontaneously immortalized from primary cultures of periosteal cells from tibae of 4-week old Sprague-Dawley rats and are cultured in DMEM (BRL, Gaithersburg, Md.) with 10% fetal bovine serum (JRH Biosciences, Lenexa, Kans.).
# RCT-1 and RCT-3 are clonal cell lines immortalized by SV-40 large T antigen from cells released from fetal rat calvair by a cmbination collagenase/hyaluronidase digestion. RCT-1 cells, derived from cells released during the first 10 minutes of digestion (fraction I), are cultured in RPMI 1640 medium (BRL) with 10% fetal bovine serum and 0.4 mg/ml G418 (BRL). These cells differentiate and express osteoblastic features upon retinoic acid treatment. RCT-3 cells, immortalized from osteoblast-enriched fraction III cells, are cultured in F-12 medium (BRL) with 5% Fetal bovine serum and 0.4 mg/ml G418. TRAB-11 cells are also immortalized by SV40 large T antigen from adult rat tibia and are cultured in RPML 1640 medium with 10% FBS and 0.4 mg/ml G418. ROS 17/2.8 rat osteosarcoma cells are cultured in F-12 containing 5% FBS. Osteoblast-enriched (fraction E) primary fetal rat calvaria cells are obtained by collagenase/hyaluronidase digestion of calvariae of 19 day-old rat fetuses. See Rodan et al., Growth stimulation of rat calvaria osteoblastic cells by acidic FGF, Endocrinology, 121, 1919-1923 (1987), which is incorporated by reference herein in its entirety. Cells are released during 30-50 minutes digestion (fraction E) and are cultured in F-12 medium containing 5% […].
# (§2) Total RNA is extracted from the tibial metaphysis or diaphysis and calvaria using a guanidinium isothiocyanate-phenol-chloroform method after pulverizing frozen bone samples by a tissue homogenizer. See P. Chomczynski et al., Single-step method of RNA isolation by acid guanlidium thiocyanate-phenol-chloroform extraction., Analyt Biochem, 162, 156-159 (1987), which is incorporated by reference herein in its entirety. RNA samples ([…]) are separated on 0.9% agarose/formaldehyde gels and transferred onto nylon membranes (Boehringer Mannheim, Germany). […]
# EP2 mRNA [2] = experiment: EP2 mRNA in RP-1 periosteal cells (Northern blot); type: cell-based, rat; settings: RP-1 cells
# Experimental: as §1
# (§3) Total RNA is extracted from the tibial metaphysis or diaphysis and calvaria using a guanidinium isothiocyanate-phenol-chloroform method after pulverizing frozen bone samples by a tissue homogenizer. See P. Chomczynski et al., Single-step method of RNA isolation by acid guanlidium thiocyanate-phenol-chloroform extraction., Analyt Biochem, 162, 156-159 (1987), which is incorporated by reference herein in its entirety. RNA samples ([…]) are separated on 0.9% agarose/formaldehyde gels and transferred onto nylon membranes (Boehringer Mannheim, Germany). Membranes are prehybridized in Hybrisol I (Oncor, Gaithersburg, Md.) and 0.5 mg/ml sonicated salmon sperm DNA (Boehringer) at 42° C. for 3 hours and are hybridized at 42° C. with rat EP2 and mouse EP4 cDNA probes labeled with [^32P]-dCTP (Amersham, Buckinghamshire, UK) by random priming using the rediprime kit (Amersham). After hybridization, membranes are washed 4 times in 2×SSC+0.1% SDS at room temperature for a total of 1 hour and once with 0.2×SSC+0.1% SDS at 55° C. for 1 hour and then exposed to Kodak XAR 2 film at −70° C. using intensifying screens. […]
# EP4 mRNA [3] = experiment: EP4 mRNA levels in bone tissue after systemic injection (Northern blot); type: in vivo, rat; settings: tibial diaphysis, 3-6 mg/Kg systemic
# Text: For mRNA localization experiments, 5-week old Sprague-Dawley rats (Charles River) are euthanized by CO2, their tibiae and calvariae are excised, cleaned of soft tissues and frozen immediately in liquid nitrogen. […] Animals are euthanized at several time points post-injection and their tibiae and calvariae, as well as samples from lung and kidney tissues are frozen in liquid nitrogen.
# as §3, with “(Amersham).” for “(Amersham). After hybridization, membranes are washed 4 times in 2×SSC+0.1% SDS at room temperature for a total of 1 hour and once with 0.2×SSC+0.1% SDS at 55° C. for 1 hour and then exposed to Kodak XAR 2 film at −70° C. using intensifying screens.”
# EP2 mRNA [4] = experiment: EP2 mRNA in bone tissue after systemic injection (Northern blot); type: in vivo, rat
# Experimental: (§4) For mRNA localization experiments, 5-week old Sprague-Dawley rats (Charles River) are euthanized by CO2, their tibiae and calvariae are excised, cleaned of soft tissues and frozen immediately in liquid nitrogen. For EP4 regulation experiments, 6-week old rats are given a single injection of either vehicle (7% ethanol in sterile water) or an anabolic dose of PGE2 (Cayman Chemical, Ann Arbor, Mich., 3-6 mg/kg in the same vehicle) intraperitoneally. Animals are euthanized at several time points post-injection and their tibiae and calvariae, as well as samples from lung and kidney tissues are frozen in liquid nitrogen.
# as §2
# EP4 mRNA [5] = experiment: Localization of EP4 mRNA expression in bone tissue by in situ hybridization; type: in vivo; settings: single anabolic dose, rat tibia
# Experimental: as §4
# Frozen tibiae are sectioned coronally at […] thickness and sections are mounted on charged slides (Probe On Plus, Fisher Scientific, Springfield, N.J.) and are kept at −70° C. until hybridization. cRNA probes are labeled with ^35S-UTPgS (ICN, Costa Mesa, Calif.) using a Riboprobe II kit (Promega Madison, Wis.). Hybridization is performed overnight at 50° C. […]
# In situ hybridization is used in order to localize cells expressing EP4 in bone. In control experiment (vehicle-injected) rats, low expression of EP4 is detected in bone marrow cells. […]
structure (smiles),measurement,setting,value
CCCCC[C@H](O)/C=C/[C@H]1[C@H](O)CC(=O)[C@@H]1C/C=C\CCCC(=O)O [PGE2],effect on intracellular cAMP,intracellular cAMP; RCT-3 cells,markedly induced
same,effect on intracellular cAMP,intracellular cAMP; ROS 17/2.8 rat osteosarcoma cells,no effect
same,effect on intracellular cAMP,intracellular cAMP; TRAB-11 cells,markedly induced
same,effect on EP4 mRNA levels,EP4 mRNA [1]; RCT-3 cells,no effect
same,effect on EP4 mRNA levels,"EP4 mRNA [1]; RP-1 periosteal cells, 10^−6 M",rapidly increases
same,time of peak EP4 mRNA level after treatment,"EP4 mRNA [1]; RP-1 periosteal cells, 10^−6 M",2 h
same,EP2 mRNA expression before or after treatment,EP2 mRNA [2],not expressed
same,time of peak EP4 mRNA level after injection,EP4 mRNA [3],2 h
same,effect on EP4 mRNA levels,EP4 mRNA [3]; five-week-old male rats,rapidly increased
same,induction of EP2 mRNA,EP2 mRNA [4],does not induce
same,expression of EP4 in bone marrow cells,EP4 mRNA [5],increased
